Where a name gives a salt, the structure may show the parent alone.
Experiments:
CDK1/cyclinB = molecular target: T1, CDK1/cyclinB (Homo sapiens, UniProt P06493); experiment: Inhibition of CDK enzyme activity (ADP-Glo kinase assay); format: biochemical; settings: 10 uM ATP, histone H1 substrate
T1 construct: purchased Merck Millipore
Method: (§1) Test compounds were prepared by dissolving the compounds obtained in the above Examples in dimethylsulfoxide (DMSO) at a concentration of 10 mM. The test compounds were diluted to 200 nM, 50 nM, […], 3.13 nM, 0.78 nM, and 0.2 nM and used in an enzyme reaction.
(§2) CDK enzyme reaction was conducted in a buffer containing 50 mM Tris-HCl (pH 7.5), 10 mM MgCl2, 1 mM EGTA, 1 mM EDTA, and 2 mM DTT. CDK1/cyclinB, CDK2/cylcinE, CDK5/p25, and CDK6/cyclinD3 enzymes commercially available from Merck Millipore were used for CDK1, CDK2, CDK5, and CDK6 enzymes, respectively, and CDK4/cyclinD1 enzyme commercially available from Signalchem (US) was used for CDK4. For CDK1, a reaction proceeded by adding 10 nM CDK1/cyclinB and 0.125 mg/ml histone H1 (Merck Millipore) substrate to the buffer and then adding 10 uM ATP thereto. For CDK2, a reaction was proceeded by adding 10 nM CDK2/cyclinE and 0.125 mg/ml histone H1 substrate to the buffer and then adding 10 uM ATP thereto. For CDK5, a reaction was proceeded by adding 10 nM CDK5/p25 and 0.125 mg/ml histone H1 substrate to the buffer and then adding 10 uM ATP thereto. For CDK4, a reaction was proceeded by adding 20 nM CDK4/cyclinD1 and 0.125 mg/ml Rb protein (Merck Millipore) to the buffer and then adding 10 uM ATP thereto. For CDK6, a reaction was proceeded by adding 50 nM CDK6/cyclinD3 and 0.125 mg/ml histone H1 substrate to the buffer and then adding 10 uM ATP thereto. Each enzyme reaction was incubated at 30° C. for 60 min. Then, the amount of ADP produced was measured using Victor X4 instrument (Perkin Elmer) after generating luminescence using ADP-Glo kinase assay kit (Promega, US). An inhibition effect on each enzyme was represented as a percentage of the luminescence value in the presence of the test compounds relative to the luminescence value without the test compounds. IC50 (nM) is the concentration of the compound to inhibit 50% of the enzyme activity.

CDK2/cyclinE = molecular target: T2, CDK2/cyclinE (Homo sapiens, UniProt P24941); experiment: as above; format: biochemical; settings: 10 uM ATP, histone H1 substrate
T2 construct: purchased Merck Millipore
Method: as §1, §2

CDK4/cyclinD1 = molecular target: T3, CDK4/cyclinD1 (Homo sapiens, UniProt P11802); experiment: as above; format: biochemical; settings: 10 uM ATP, Rb protein substrate; read-out: IC50 CDK4/cyclinD
T3 construct: purchased Signalchem (US)
T3 sequence (P11802 whole entry): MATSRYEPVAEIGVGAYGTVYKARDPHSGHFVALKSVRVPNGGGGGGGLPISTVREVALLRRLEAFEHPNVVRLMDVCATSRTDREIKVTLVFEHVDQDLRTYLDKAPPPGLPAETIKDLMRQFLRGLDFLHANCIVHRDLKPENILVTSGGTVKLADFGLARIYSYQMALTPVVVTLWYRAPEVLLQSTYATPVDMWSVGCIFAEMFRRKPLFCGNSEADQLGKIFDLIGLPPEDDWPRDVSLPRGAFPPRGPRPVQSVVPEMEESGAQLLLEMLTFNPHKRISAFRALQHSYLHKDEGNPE
T3 sequence (P24385 whole entry partner): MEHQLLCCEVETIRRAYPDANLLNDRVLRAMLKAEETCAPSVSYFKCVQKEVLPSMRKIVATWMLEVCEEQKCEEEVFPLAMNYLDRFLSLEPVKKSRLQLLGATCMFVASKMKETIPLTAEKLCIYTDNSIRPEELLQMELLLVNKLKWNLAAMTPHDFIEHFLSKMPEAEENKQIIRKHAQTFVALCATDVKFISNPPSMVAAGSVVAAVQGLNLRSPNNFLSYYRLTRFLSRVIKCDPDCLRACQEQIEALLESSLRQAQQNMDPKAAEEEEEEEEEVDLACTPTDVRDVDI
Method: as §1, §2

CDK5/p25 = molecular target: T4, CDK5/p25 (Homo sapiens, UniProt Q00535); experiment: as above; format: biochemical; settings: 10 uM ATP, histone H1 substrate
T4 construct: purchased Merck Millipore
T4 sequence (Q00535 whole entry): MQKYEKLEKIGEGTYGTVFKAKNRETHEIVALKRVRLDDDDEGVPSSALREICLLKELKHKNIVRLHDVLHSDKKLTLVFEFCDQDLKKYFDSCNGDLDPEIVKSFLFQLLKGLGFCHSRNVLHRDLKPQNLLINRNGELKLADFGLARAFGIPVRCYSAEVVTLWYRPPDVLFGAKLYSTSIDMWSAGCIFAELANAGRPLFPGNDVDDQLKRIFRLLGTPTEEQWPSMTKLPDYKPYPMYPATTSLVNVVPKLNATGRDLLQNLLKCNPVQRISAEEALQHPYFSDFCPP
T4 sequence (Q15078 99-307 partner limits assumed): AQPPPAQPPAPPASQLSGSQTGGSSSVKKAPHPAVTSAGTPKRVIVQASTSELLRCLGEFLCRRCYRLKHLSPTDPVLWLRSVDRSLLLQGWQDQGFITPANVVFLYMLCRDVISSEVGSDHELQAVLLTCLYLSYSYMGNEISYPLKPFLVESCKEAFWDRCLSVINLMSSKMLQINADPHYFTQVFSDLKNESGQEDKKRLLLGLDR
Method: as §1, §2

CDK6/cyclinD3 = molecular target: T5, CDK6/cyclinD3 (Homo sapiens, UniProt Q00534); experiment: as above; format: biochemical; settings: 10 uM ATP, histone H1 substrate; read-out: IC50 CDK6/cyclinD
T5 construct: purchased Merck Millipore
T5 sequence (Q00534 whole entry): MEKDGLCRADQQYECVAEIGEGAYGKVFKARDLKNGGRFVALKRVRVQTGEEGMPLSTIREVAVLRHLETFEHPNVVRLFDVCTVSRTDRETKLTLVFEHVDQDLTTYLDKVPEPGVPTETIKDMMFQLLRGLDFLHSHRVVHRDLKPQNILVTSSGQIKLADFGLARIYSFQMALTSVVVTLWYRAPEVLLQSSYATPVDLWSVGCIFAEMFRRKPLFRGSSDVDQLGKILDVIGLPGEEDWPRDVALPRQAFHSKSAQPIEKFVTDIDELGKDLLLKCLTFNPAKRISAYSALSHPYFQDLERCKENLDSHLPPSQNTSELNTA
T5 sequence (P30281 whole entry partner): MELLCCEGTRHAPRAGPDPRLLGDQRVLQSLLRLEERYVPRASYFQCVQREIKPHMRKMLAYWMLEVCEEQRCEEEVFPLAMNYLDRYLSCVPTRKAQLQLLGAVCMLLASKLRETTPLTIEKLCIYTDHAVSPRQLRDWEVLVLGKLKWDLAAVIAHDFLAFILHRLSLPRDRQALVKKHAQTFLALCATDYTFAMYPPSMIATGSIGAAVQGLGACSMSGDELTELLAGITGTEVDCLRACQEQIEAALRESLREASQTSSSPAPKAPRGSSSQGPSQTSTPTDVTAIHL
Method: as §1, §2

A549 = experiment: Inhibition of cancer cell proliferation (MTT); format: cell-based, human
Method: (§3) A test was conducted to confirm whether the compounds obtained in the above Examples can inhibit proliferation of human colon carcinoma cell line HCT116, glioblastoma cell lines U-87MG and T98G, neuroblastoma cell lines SH-SYSY and SK-N-SH, and lung cancer cell lines A549 and NCI-H23.
(§4) HCT116, U-87MG, SH-SYSY, SK-N-SH and A549 cells were culured in DMEM medium containing 10% FBS. T98G cells were cultured in MEM medium containing 10% FBS and NCI-H23 cells were cultured in […] medium containing 10% FBS. In order to analyze an inhibition of proliferation, HCT116 cells were dispensed in 2000 cells/well into 96 well plate, and SH-SYSY, SK-N-SH, U-87MG, T98G, A549, and NCI-H23 cells were dispensed in 3000 cells/well into 96 well plate. And then, the cells were cultured at 5% CO2 and 37° C. for 16 hrs to allow the cells to attach to the wells. The compounds of the above Examples were added to each well at a concentration of 0.004, 0.013, 0.04, 0.12, 0.37, 1.1, 3.3, and 10 uM, and the culture volume was adjusted to 100 ul. A control group was treated with dimethylsulfoxide (DMSO) at the same concentration, 0.08%, as used to treat the test compounds. Afterwards, cells were cultured at 5% CO2 and 37° C. for 72 hrs. And then, 10 ul of the solution of MTT (3-(4,5-dimethylthiazol-2-yl)-2,5-diphenyltetrazolium bromide) dissolved in PBS at 5 mg/ml was added to each well to identify viable cells and the cells were cultured for further 2 hrs. The culture solution was removed, 100 ul of DMSO was added to dissolve the formed formazan and then an absorbance was measured at 535 nm. Based on the absorbance of the control cells not treated with the compounds, the amounts of the viable cells according to the concentration of the compounds were calculated. GI50 (growth inhibition 50) value which is the concentration of the compound to inhibit cancer cell proliferation by 50% was calculated using Graphpad Prism 5.0 program.

HCT116 = experiment: Inhibition of cancer cell proliferation (MTT); format: cell-based, human
Method: as §3, §4

NCI-H23 = experiment: Inhibition of cancer cell proliferation (MTT); format: cell-based, human
Method: as §3, §4

U-87MG = experiment: Inhibition of cancer cell proliferation (MTT); format: cell-based, human
Method: as §3, §4

T98G = experiment: Inhibition of cancer cell proliferation (MTT); format: cell-based, human
Method: as §3, §4

T1 sequence (P06493 whole entry): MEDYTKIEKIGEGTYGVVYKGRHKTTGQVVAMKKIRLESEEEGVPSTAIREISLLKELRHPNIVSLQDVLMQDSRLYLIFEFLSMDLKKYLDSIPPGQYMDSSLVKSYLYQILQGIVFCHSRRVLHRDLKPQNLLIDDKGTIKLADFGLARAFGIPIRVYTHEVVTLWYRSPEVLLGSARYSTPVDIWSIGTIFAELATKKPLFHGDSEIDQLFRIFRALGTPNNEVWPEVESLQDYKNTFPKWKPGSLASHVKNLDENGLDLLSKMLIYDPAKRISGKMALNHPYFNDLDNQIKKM
T1 sequence (P14635 whole entry partner): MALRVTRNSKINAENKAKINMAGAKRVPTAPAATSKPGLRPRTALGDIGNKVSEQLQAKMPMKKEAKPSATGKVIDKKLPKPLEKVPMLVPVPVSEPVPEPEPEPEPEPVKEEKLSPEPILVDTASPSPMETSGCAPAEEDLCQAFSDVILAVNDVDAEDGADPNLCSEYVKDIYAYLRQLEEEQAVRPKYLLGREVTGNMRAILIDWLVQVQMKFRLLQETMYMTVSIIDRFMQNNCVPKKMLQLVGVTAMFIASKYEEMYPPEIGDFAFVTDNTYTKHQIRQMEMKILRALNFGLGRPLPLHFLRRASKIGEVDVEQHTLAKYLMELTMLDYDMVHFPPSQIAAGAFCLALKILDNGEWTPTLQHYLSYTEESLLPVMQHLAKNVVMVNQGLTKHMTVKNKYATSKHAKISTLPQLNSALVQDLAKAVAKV

SMILES | IC50 (CDK1/cyclinB) | IC50 (CDK2/cyclinE) | IC50 (CDK4/cyclinD1) | IC50 (CDK5/p25) | IC50 (CDK6/cyclinD3) | GI50 (A549; Homo sapiens, A549, 72 h) | GI50 (HCT116; Homo sapiens, HCT-116, 72 h) | GI50 (NCI-H23; Homo sapiens, NCI-H23, 72 h) | GI50 (U-87MG; Homo sapiens, U-87 MG, 72 h) | GI50 (T98G; Homo sapiens, T98G, 72 h) | GI50 (A549; 72 hrs) | GI50 (HCT116; 72 hrs) | GI50 (NCI-H23; 72 hrs) | GI50 (T98G; 72 hrs) | GI50 (U-87MG; 72 hrs)
CN1CCN(c2cc(-c3nc(-c4ccnc(N)c4F)ccc3O)nc(N)n2)CC1 [Example 53, 2′-amino-6-(2-amino-6-(4-methylpiperazin-1-yl)pyrimidin-4-yl)-3′-fluoro-[2,4′-bipyridin]-5-ol] | 4 nM | 10.8 nM | > 200 nM | 2.8 nM | 86.8 nM | 20 nM | 10 nM | 40 nM | 30 nM | – | – | – | – | – | –
CN(C)c1cc(-c2nc(-c3ccnc(N)c3F)ccc2O)nc(N)n1 [Example 52, 2′-amino-6-(2-amino-6-(dimethylamino)pyrimidin-4-yl)-3′-fluoro-[2,4′-bipyridin]-5-ol] | 0.7 nM | 14.6 nM | 63.7 nM | 1.9 nM | 59.6 nM | 20 nM | 10 nM | 30 nM | – | – | – | – | – | – | –
Nc1nc(-c2nc(-c3ccnc(N)c3F)ccc2O)cc(C2CCNCC2)n1 [Example 33, 2′-amino-6-(2-amino-6-(piperidin-4-yl)pyrimidin-4-yl)-3′-fluoro-[2,4′-bipyridin]-5-ol] | 17.1 nM | 3.7 nM | 39.3 nM | 9.89 nM | 240 nM | 190 nM | 50 nM | 1710 nM | 150 nM | 260 nM | – | – | – | – | –
CC(C)c1cnc(N)nc1-c1nc(-c2ccnc(N)c2F)ccc1O [Example 104] | 1.3 nM | 1.6 nM | 15.2 nM | 0.8 nM | 54.1 nM | – | – | – | – | – | 80 nM | 30 nM | 80 nM | 50 nM | 70 nM
Cc1cc(-c2nc(-c3ccnc(N)c3F)ccc2O)nc(N)n1 [Example 24, 2′-amino-6-(2-amino-6-methylpyrimidin-4-yl)-3′-fluoro-[2,4′-bipyridin]-5-ol] | 0.6 nM | 0.9 nM | 342 nM | 0.7 nM | 33.8 nM | – | 20 nM | – | – | – | – | – | – | – | –
CC(C)N1CCCC(c2cc(-c3nc(-c4ccnc(N)c4F)ccc3O)nc(N)n2)C1 (stereo not shown) [Example 92, 2′-amino-6-(2-amino-6-(1-isopropylpiperidin-3-yl)pyrimidin-4-yl)-3′-fluoro[2,4′-bipyridin]-5-ol 4hydrochloride] | – | – | – | – | – | – | – | – | – | – | 30 nM | 20 nM | 50 nM | 90 nM | 30 nM
Cc1c(-c2nc(-c3ccnc(N)c3F)ccc2O)nc(N)nc1C1CCN(C(C)C)CC1 [Example 45, 2′-amino-6-(2-amino-6-(1-isopropylpiperidin-4-yl)-5-methylpyrimidin-4-yl)-3′-fluoro-[2,4′-bipyridin]-5-ol] | – | – | – | – | – | 150 nM | 90 nM | 400 nM | 100 nM | 160 nM | – | – | – | – | –
CC(C)c1cc(-c2nc(-c3ccnc(N)c3F)ccc2O)nc(N)n1 [Example 31, 2′-amino-6-(2-amino-6-isopropylpyrimidin-4-yl)-3′-fluoro-[2,4′-bipyridin]-5-ol] | 2.3 nM | 0.59 nM | 35.9 nM | 3.13 nM | 61.5 nM | 180 nM | 30 nM | 100 nM | – | – | – | – | – | – | –
